For test [1], the system named is Lewis lung carcinoma (LLC). The experiment in a line: Syngeneic LLC murine model of lung cancer. To be noted: for body weight gain: day 16 vs. day 0. Type of test: in vivo, mouse. Here is the method: Metastatic lung cancer was established by tail vein injection of Lewis lung carcinoma (LLC) (a mouse NSCLC cell line, Bertram et al., 1980, Cancer Lett, 11:63-73) cells into immunocompetent mice (FIG. 30A). Intravenous dosing of Bobcat339 (or vehicle) at 2.5 mg/kg every four days was initiated three days after tumor cell injection. The lungs were collected at day 20 from sacrificed mice. On day 16 as compared to day 0, mice in the Veh group lost ~5% of body weight, whereas those in the Bobcat339 group gained ~6% of body weight, which would be expected for a normal female mouse during this age period (FIG. 30B). […] Severe weight loss is frequently seen in patients with NSCLC, which is also associated with systemic inflammation and cancer cachexia (Staal-van den Brekel et al., 1995, J Clin Oncol, 13:2600-2605; Fredrix et al., 1991, Cancer, 68:1616-1621; Jatoi et al., 2001, Ann Thorac Surg, 72:348-351; Ulmann et al., 2019, Ann Nutr Metab, 75:223-230; Jouinot et al., 2020, Clin Nutr, 39:1893-1899).
Metastatic lung cancer was established by tail vein injection of Lewis lung carcinoma (LLC) (a mouse NSCLC cell line) (Bertram et al., 1980, Cancer Lett, 11:63-73) cells into immunocompetent mice (FIG. 29). Intravenous dosing of Bobcat339 (or vehicle) at 3 mg/kg every four days was initiated three days after tumor cell injection. The lungs were collected at day 20 from sacrificed mice.
LLC cells (2.5×10^5 cells/mouse) were injected into the tail vein of female C57BL/6J mice of 8-weeks old. Mice were randomly divided into vehicle (n=5) and Bobcat339 (n=5) groups. Three days after tumor cell injection, the vehicle group mice received tail vein injection of DMSO and the Bobcat339 group with Bobcat339 at the dose of 2.5 or 3 mg/kg body weight every four days. The animals were sacrificed 20 days after tumor cell injection and lungs were isolated and weighed. The whole lung was fixed in 4% paraformaldehyde overnight at 4 °C and embedded in paraffin for histological analysis and IHC. A second cohort of mice (n=5 in each group) treated as above were used for survival studies using moribund as an experimental endpoint.

The test system of another test is Lin28. As to the kind of experiment: Lin28 expression in mouse peritoneal macrophages. Format: cell-based. Particulars: 10 μM, 48 h. Here is the method:
For cultured mouse peritoneal macrophages, cells were primed with 30 ng/ml of TGF-β1 (R&D Systems, 7666-MB0-005) for 48 h (to increase TET3 expression) before Bobcat339 treatment. Bobcat339 (or DMSO) was added at a final concentration of 10 μM, followed by RNA and protein extraction at time points indicated in the figure legends.
Total RNAs were extracted from cells using PureLink RNA Mini Kit. 0.5-1 μg total RNA was reverse transcribed to cDNA in a reaction volume of 20 μL using PrimeScript RT Reagent Kit. Real-time quantitative PCR was performed in a 15 μL reaction volume containing 0.5-1 μL of cDNA using SsoAdvanced Universal SYBR Green Supermix in a Bio-Rad iCycler. Gene expression levels were normalized against RPLP0.

Setting [2] is: 2.5 mg/kg i.v. every four days, day 20.

In the case of `Nc1nc(=O)n(-c2cccc(-c3ccccc3)c2)cc1Cl` [Bobcat339, 4-Amino-1-[1,1′-biphenyl]-3-yl-5-chloro-2(1H)-pyrimidinone], in test [1] (2.5 mg/kg i.v. every four days), the food intake entry was “no difference in food intake” and the body weight gain is listed as ~ 6%. In test [1] (setting [2]), the “LLC metastases in lungs” value is on record as “Fewer LLC metastases” and the lung weight entry is reported as “significantly less”. Also, in test [1] (3 mg/kg i.v. every four days), the “LLC metastases in lungs” value is listed as “fewer LLC metastases”, the food intake entry is listed as “no difference in food intake”, the lung weight entry is on record as “significantly less” and the survival rate result is reported as “an increased survival rate”. Moreover, the body weight gain in test [1] (3 mg/kg i.v. every four days) is ~ 6%. In the test on Lin28, the Lin28 expression entry was “decreased”.

Values taken from patent US20260355199A1, “COMPOSITIONS AND METHODS FOR TREATING OR PREVENTING NONALCOHOLIC STEATOHEPATITIS (NASH), ANOREXIA, DEPRESSION, ENDOMETRIOSIS, AND OTHER DISEASES OR DISORDERS” (priority 2022, published 2026).
